Assay results as given in article PMC10508264, “Exploring the antioxidant, antimicrobial, cytotoxic and biothermodynamic properties of novel morpholine derivative bioactive Mn(II), Co(II) and Ni(II) complexes – combined experimental and theoretical measurements towards DNA/BSA/SARS-CoV-2 3CL^Pro” (RSC Medicinal Chemistry, 2023).
Like-named read-outs stand apart in the source and are kept apart here.

Tests used:
[1] = Shake flask n-octanol/deionized water partition (lipophilicity); assay type: physicochemical; conditions: for Concentration, aqueous layer: deionised water phase; for Concentration, organic layer: n-octanol phase; for pKa: Henderson–Hasselbalch
Description: The lipophilicity of all complexes and free ligands was evaluated by the flask-shaking method through n-octanol/deionized water phase partition.[49–51] The partition coefficients (log Po/w) and distribution coefficients (log Do/w) of all substances were also acquired from molar absorption coefficients, conductivity, and pH measurements.[52–54]
Lipophilicity is an imperative factor in anticancer and antimicrobial properties, particularly the necessity for a relevant hydrophobicity to assist the crossing of the cell membrane. This is also supported for the characterization of a drug because it has a fundamental impact on the pharmacokinetic profile and is associated with its capacity to enter tumor cells through passive diffusion.[139] […] This is probably due to the fact that hydrophobic effects play a crucial role not only in the intramolecular interactions that take place between a medication and its target site, but also in the distribution of a drug within a biosystem, its interaction with rival binding sites, passage across and into membranes, and its interaction with metabolizing enzymes. However, the “accurate” model system for hydrophobic effects is octanol/water. Hydrophobicity (lipophilicity) is associated with the partition coefficient (log P), which is a measure of the ability of the solute to go into two immiscible phases (polar and non-polar environments). Also, it refers to the concentration of unionized species of compounds. Generally, the ability of a drug to penetrate with high permeability into lipid membranes depends on the solubility and partition coefficient of the drug. Furthermore, the partition coefficient is extensively employed in the discovery of new medications, chromatography, physical chemistry, environmental science and other fields. Since lipophilicity is one of the major parameters affecting important biological processes, it can influence drug intake via the absorption, distribution, metabolism, excretion, and toxicity (ADMET) characteristics of the substances.[140] Additionally, the ability of a molecule or drug to passively diffuse across cell membranes has been linked to its lipophilicity, which is a measure of the solubility of the substance in aqueous and lipid-like environments.[141] In general, chemotherapeutic medications often need to have certain solubility in the lipid phase in order to be absorbed by the biofilm. Meanwhile, the intracellular milieu is a water-soluble environment once the drug has entered the cell. The medicine must be water-soluble for it to have any anticancer effects. […] Conversely, the cytotoxic properties of a synthesized complex are not only associated with its DNA/protein binding affinity but may be also influenced by its lipophilicity. Additionally, molecules with higher lipophilicity have increased permeability into cell membranes, which determines a drug's cytotoxicity. […] However, more positive partition coefficient values (log P > 0) correspond to higher lipophilicity, and more negative values (log P < 0) correspond to higher hydrophilicity. Generally, log P is measured between −3 and +10; if […], the substance has an extremely hydrophilic character, and if log P > +10, the substance has an extremely hydrophobic character. In addition, the aromatic ligands get larger in size and become more hydrophobic. […] The present complexes (1–3) have higher values of log P and log D compared to the free ligand (Table 11). However, when log P > ±2, the drug will be harder to excrete from the body due to its high lipophilic character, which also creates toxicity due to accumulation. […] (Table 11). […] The observed results are also well correlated with cytotoxic properties. Moreover, in an equilibrium two-component system, the partition coefficient (log P) reflects the ratio of neutral solute concentrations in the organic and aqueous phases. As a result, log P expresses the inherent lipophilicity of a compound in the absence of dissociation or ionization. […]

[2] = tested on: DNA; assay: DNA cleavage by gel electrophoresis under H2O2; assay type: biochemical; conditions: H2O2 environment
Description: In a cellular system, DNA base pairs can be broken by a variety of mechanisms, including errors in DNA replication, generation of a heteroduplex during homologous recombination, spontaneous deamination of cytosine, and base pairs broken by mutagens or ionizing radiation, which also lead to improper base pairing and mutations. Also, metal complexes have the capability of recognizing DNA mismatches and may become vital entities for investigation and possibly for clinical applications.[55] Moreover, the cleavage of one or both DNA strands is a typical and essential process for maintaining cell viability: during DNA replication and transcription, topoisomerase enzymes correct topological issues, and various nucleases take part in repair mechanisms and DNA degradation, which is one of the distinguishing features of apoptotic programmed cell death. Similarly, several antitumor drugs have the potential to cleave DNA by inducing apoptosis, which eventually leads to cancer cell death. Conversely, molecules that can interact with DNA's major or minor grooves are known as groove-binding molecules, which disrupt and impair the function of the DNA double helix via various non-covalent interactions. The DNA nuclease properties of all samples were assessed in an H2O2 environment by the gel electrophoresis method. DNA cleavage was monitored during the conversion of supercoiled plasmids into linear and nicked DNA fragments. Also, the observed DNA nuclease efficacy for all complexes (1–3) was compared with the free ligand (HL) and CT-DNA alone. No substantial nuclease activity can be seen in the control (Fig. 1 and S13 ^†) (lane 1; DNA + H2O2) even after a lot of time has passed, and free ligand (HL) (lane 2) was monitored as immobile in an H2O2 environment. […] Consequently, it is commonly acknowledged that ROS plays a dual physiological role in controlling a variety of illnesses as well as cellular homeostasis (self-regulating processes like thermoregulation, blood glucose regulation, calcium/potassium homeostasis, and osmoregulation).[56] […] Additionally, it is widely known that the NADPH oxidase enzyme produces reactive oxygen species as part of its antibacterial effect on phagocytic cells. Nevertheless, these types of enzyme seem to be present in a variety of other cells and may have significant signalling pathway functions. When non-carcinogenic toxicity events occur, ROS has the ability to alter cell function as well as to affect the genesis of cancer at several levels. OH˙ can attack DNA, proteins, and lipids due to its high reactivity among ROS. Also, the hydroxyl radical is a key participant in free-radical-mediated hazardous reactions because of its great reactivity. […]

[3] = tested on: Pseudomonas aeruginosa; assay: Agar disc diffusion, strain D; assay type: cell-based; set-up: Inhibition%: concentration or dose not given beside the values; conditions: for Diameter of clear zone inhibition: control 6 mm
[4] = tested on: A549; assay: MTT cell viability assay, A549; assay type: cell-based, human; conditions: A549, 72 h of exposure
[5] = tested on: Escherichia coli; assay: Agar disc diffusion, strain A; assay type: cell-based; set-up: Inhibition%: concentration or dose not given beside the values; conditions: for Diameter of clear zone inhibition: control (DMSO) 6 mm
[6] = n-octanol/deionised water, shake flask

Row | Structure (SMILES) | Concentration, aqueous ions [1] [µM] | Net pH [1] | Concentration, aqueous layer [1] [µM] | Concentration, organic layer [1] [µM] | logD at 24 h ([1]; n-octanol/deionised water, pH 7.11) | pKa ([1]; n-octanol/deionized water (shake flask), pH 3.35, read-out: pKa) | logP at 24 h ([1]; pH 7.11, n-octanol/deionised water, shake flask) | DNA cleavage [2] | Inhibition% [3] [%] | Diameter of clear zone inhibition [3] [mm] | IC50 ([4]; Homo sapiens) [µM] | Inhibition% [5] [%] | Diameter of clear zone inhibition [5] [mm] | pKa [1] | Log D ([1]; n-octanol/deionised water) | Log P [1, 6] | IC50 [4] [µM]
1 | Oc1ccccc1N=Cc1ccc(N2CCOCC2)cc1 [(HL), 2-(4-morpholinobenzylideneamino)phenol] | 789 | 3.35 | 900 | 11000 | 0.814 | 3.08 | 1.09 | immobile | 25 | 08 | 126 ± 6.3 | 33 | 09 |  |  |  | 
2 | [Mn+2].[O-]c1ccccc1N=Cc1ccc(N2CCOCC2)cc1.[O-]c1ccccc1N=Cc1ccc(N2CCOCC2)cc1.c1ccc(-c2ccccn2)nc1 [(1)] | 238 | 3.48 | 1600 | 23500 |  |  |  | no considerable cleavage efficiency | 63 | 16 |  | 40 | 10 | 3.42 | 1.107 | 1.166 | 37.6 ± 1.9
3 | [Ni+2].[O-]c1ccccc1N=Cc1ccc(N2CCOCC2)cc1.[O-]c1ccccc1N=Cc1ccc(N2CCOCC2)cc1.c1ccc(-c2ccccn2)nc1 [(3)] | 35.7 | 4.76 | 1250 | 18500 |  |  |  | partial DNA cleavage | 57 | 14 |  | 50 | 12 | 4.75 | 1.158 | 1.170 | 33.5 ± 1.7
4 | [Co+2].[O-]c1ccccc1N=Cc1ccc(N2CCOCC2)cc1.[O-]c1ccccc1N=Cc1ccc(N2CCOCC2)cc1.c1ccc(-c2ccccn2)nc1 [(2)] | 56.6 | 4.38 | 12000 | 400 |  |  |  | complete DNA cleavage | 54 | 13 |  | 40 | 10 | 4.36 | −1.497 | −1.477 | 34.2 ± 1.7
